Source: ChEMBL document CHEMBL4052739, “Discovery of a biarylamide series of potent, state-dependent NaV1.7 inhibitors” (Bioorg Med Chem Lett, 2017)
Values after ≈ are worked out from the molar mass of the structure shown.

Key:
[1] = system: P-gp; test: Apparent permeability in MDCK cells harboring Pgp; format: ADME, cell-based, Canis lupus familiaris; details: dog, MDCK-MDR1
[2] = system: Plasma; test: Unbound drug uptake in plasma of Sprague-Dawley rat at 300 mg/kg, po; format: ADME, organism-based; details: in vivo
[3] = system: Plasma; test: Drug uptake in plasma of Sprague-Dawley rat at 300 mg/kg, po; format: ADME, organism-based; details: in vivo
[4] = system: Plasma; test: Drug uptake in Sprague-Dawley rat plasma at 30 mg/kg, po; format: ADME, organism-based; details: in vivo
[5] = Aqueous solubility of compound in PBS buffer; format: physicochemical
[6] = Volume of distribution at steady state in rat at 0.5 mg/kg, iv by LC-MS/MS analysis; format: ADME, organism-based; details: in vivo, read-out: Vdss
[7] = Ratio of drug uptake in brain to plasma of formalin-induced nociception Sprague-Dawley rat model at 100 mg/kg, po; format: ADME, organism-based; details: read-out: BPR
[8] = system: Plasma; test: Drug uptake in plasma of formalin-induced nociception Sprague-Dawley rat model at 30 mg/kg, po; format: ADME, organism-based; details: in vivo
[9] = Oral bioavailability in rat at 100 mg/kg administered via gavage by LC-MS/MS analysis; format: ADME, organism-based; details: in vivo
[10] = system: Plasma; test: Unbound drug uptake in plasma of Sprague-Dawley rat at 30 mg/kg, po; format: ADME, organism-based; details: in vivo
[11] = system: Plasma; test: Drug uptake in plasma of formalin-induced nociception Sprague-Dawley rat model at 100 mg/kg, po; format: ADME, organism-based; details: in vivo
[12] = system: Plasma; test: Unbound drug uptake in plasma of formalin-induced nociception Sprague-Dawley rat model at 100 mg/kg, po; format: ADME, organism-based; details: in vivo
[13] = system: Plasma; test: Unbound drug uptake in plasma of formalin-induced nociception Sprague-Dawley rat model at 30 mg/kg, po; format: ADME, organism-based; details: in vivo
[14] = system: Plasma; test: Unbound drug uptake in plasma of Sprague-Dawley rat at 100 mg/kg, po; format: ADME, organism-based; details: in vivo
[15] = system: Plasma; test: Drug uptake in plasma of Sprague-Dawley rat at 100 mg/kg, po; format: ADME, organism-based; details: in vivo
[16] = Oral bioavailability in rat at 10 mg/kg administered via gavage by LC-MS/MS analysis; format: ADME, organism-based; details: in vivo
[17] = Oral bioavailability in rat at 40 mg/kg administered via gavage by LC-MS/MS analysis; format: ADME, organism-based; details: in vivo
[18] = Oral bioavailability in rat at 30 mg/kg administered via gavage by LC-MS/MS analysis; format: ADME, organism-based; details: in vivo

SMILES | Papp [1] | solubility [5] | Vd [6] | bioavailability [16] | further results
O=C(COc1cccc2cccnc12)Nc1ccccc1N1CCOCC1 | 37 ×10⁻⁶ cm/s | – | – | – | –
Nc1cccnc1-c1cccc(C(=O)Nc2cccc(C(F)(F)F)c2-c2cccnc2)c1 | – | 470 µM (≈ 204 µg/mL) | 1.29 L/kg | – | Cp(f) [2]: 0.714 µM; concentration [3]: 3.99 µM; concentration [4]: 549 nM; Kp [7]: 0.36; concentration [8]: 342 nM; bioavailability [9]: 73%; Cp(f) [10]: 0.098 µM; concentration [11]: 1570 nM; Cp(f) [12]: 0.281 µM; Cp(f) [13]: 0.061 µM; Cp(f) [14]: 0.322 µM; concentration [15]: 1800 nM
O=C(Nc1cccc(C(F)(F)F)c1-c1cccnc1)c1cccc(-c2ncccc2Cl)c1 | – | 10 µM (≈ 4.54 µg/mL) | 1.27 L/kg | 58% | –
O=C(Nc1cccc(C(F)(F)F)c1-c1cccnc1)c1cccc(-c2ncccc2C(F)(F)F)c1 | – | 22 µM (≈ 10.7 µg/mL) | 0.57 L/kg | – | bioavailability [17]: 26%
O=C(Nc1cccc(C(F)(F)F)c1-c1cccnc1)c1cccc(-c2ncccc2OC(F)F)c1 | 31 ×10⁻⁶ cm/s | 56 µM (≈ 27.2 µg/mL) | 3 L/kg | – | bioavailability [18]: 92%
O=C(Nc1cccc(C(F)(F)F)c1-c1cccnc1)c1cccc(-c2ccccn2)c1 | – | 12 µM (≈ 5.03 µg/mL) | 1.4 L/kg | 54% | –
